Assay: in vitro release (dissolution) of tablets, USP II apparatus
Assay type: physicochemical
Details: tablets from Trial 2 (three strands of PVDF as core), 250 ml 0.1 N HCl, 37° C., paddle 50 rpm
Procedure: The dimensions of the tablets from both trials were similar, as both trials yielded tablets approximately 3 mm thick. To determine the dose of 2,3:4,5-bis-O-(1-methylethylidene)-β-D-fructopyranose sulfamate in each tablet, the tablet was dissolved in 10 ml H2O/0.1 N HCl 9/1 v/v. The concentration of 2,3:4,5-bis-O-(1-methylethylidene)-β-D-fructopyranose sulfamate was analyzed by HPLC (Waters System with Millenium Software, 2690 Alliance, Waters, Milford, Mass.). A sample of 50 uL is injected into a Zorbax Eclipse (HP, Palo Alto, Calif.) column (XDB-C8, 4.6*150 mm, P/N: 993967.906). The mobile phase consists of H2O/methanol 68/32 w/w at a flow rate of 1.5 mL/min. The concentration was determined with a refractive index detector (Sensitivity 32). The peak retention time is 6.7 minutes and the run takes 14 minutes.
The in vitro release of the tablets made in this example was also determined. Four tablets from Trial 2 were placed in a USP II apparatus (SR8 plus, Hanson, Chatsworth, Calif.) containing 250 ml of 0.1 N HCl at 37° C. and a paddle rotating at 50 rpm. Dissolution was followed up to 1 hour, with samples taken after 5, 15, 30 and 60 minutes. An aliquot of 5 ml was filtered through a PTFE 0.2 micron filter. The sample was not replaced with fresh solvent. The concentration of 2,3:4,5-bis-O-(1-methylethylidene)-β-D-fructopyranose sulfamate was analyzed by HPLC as discussed above.

## CC1(C)O[C@@H]2[C@@H](CO[C@@]3(COS(N)(=O)=O)OC(C)(C)O[C@@H]23)O1 [2,3:4,5-bis-O-(1-methylethylidene)-β-D-fructopyranose sulfamate]
After 5 minutes
  2,3:4,5-bis-O-(1-methylethylidene)-β-D-fructopyranose sulfamate released: approximately 4%
By 15 minutes
  2,3:4,5-bis-O-(1-methylethylidene)-β-D-fructopyranose sulfamate released: about 48%
In 30 minutes
  2,3:4,5-bis-O-(1-methylethylidene)-β-D-fructopyranose sulfamate released: complete release

From US20050158385A1, “Coating technique for deposition of drug substance on a substrate” (priority 2002, published 2005)
